Measurements: EP1479389B1, “Ready to use gemcitabine solutions” (STADA ARZNEIMITTEL AG, priority 2003, dated 2004)

Experiments:
Type in all cases: physicochemical
[1] = pH-dependent visible crystallisation of concentrated gemcitabine solutions; conditions: pH 5,0; 25°C; c=52,7 mg Gemcitabin/ml
[2] = Temperature-dependent storage stability of gemcitabine solutions pH 4,0, content by HPLC; conditions: 10 mg/ml
Protocol: Zur weiteren Bestimmung der Temperatur-Abhängigkeit der Stabilität von erfindungsgemäßen Gemcitabin-Lösungen mit einem pH-Wert von ca. 4,0, wurden wie zuvor beschrieben Lösungen, deren pH-Wert mit 1 N Natronlauge eingestellt wurde, mit einer Gemcitabin-Konzentration von 10 mg/ml (in Wasser für Injektionszwecke) hergestellt. Diese wurden über einen Zeitraum von 12 Monaten gelagert. In dieser Zeit wurde die Wirkstoffkonzentration in regelmäßigen Abständen mittels HPLC bestimmt. Tabelle 3: Temperatur-abhängige Stabilität von Gemcitabin-Lösungen (c(Gemcitabin) = 10 mg/ml entsprechend 11,39 mg Gemcitabinhydrochlorid pro ml Wasser, pH 4,0)

[3] = pH-dependent visible crystallisation of concentrated gemcitabine solutions; conditions: c=52,7mg Gemcitabin/ml
Protocol: Zur Bestimmung der tatsächlichen, pH-abhängigen Löslichkeit von Gemcitabin in wässrigen Lösungen wurden entsprechend Beispiel 1 konzentrierte Gemcitabin-Lösungen (c=52,7 mg Gemcitabin/ml entsprechend 60mg Gemcitabinhydrochlorid pro ml Wasser; 5 ml/Vial) hergestellt, deren pH-Wert mit q.s. 1 N Natronlauge auf pH-Werte von 2,0 bis 5,0 eingestellt wurde. Die so erhaltenen Lösungen wurden bei einer Lagertemperatur von 2-8°C gelagert.
Tabelle 2: Stabilität von konzentrierten Gemcitabin-Lösungen vs. Auskristallisation des Wirkstoffs

[4] = Regressive extrapolation of the Table 6 storage stability data to 1-4 years; conditions: 10 mg/ml in aqueous solution, pH ca. 8; Lagertemperatur 25°C
Protocol: Eine regressive Extrapolation der in Tabelle 6 angegebenen Daten ergab folgende in Tabelle 7 aufgeführte Lagerstabilitäten. Tabelle 7 : Stabilität von Gemcitabin-Lösungen mit pH = 8,0 bei 25°C, 40°C und 60°C bei einer Lagerzeit von 1-4 Jahren

[5] = Visible precipitation of aqueous gemcitabine solutions on storage (solubility, initial pH ca. 4,0); conditions: water, pH 4, water, 2-8°C storage, no solubility enhancers, read-out: Gehalt klarer partikelfreier Gemcitabinlösungen
Protocol: Zur Bestimmung der Löslichkeit von Gemcitabin in wässrigen Lösungen (bei T = 25°C und T = 2-8°C, Anfangs-pH-Wert = 4,0) wurde Gemcitabinhydrochlorid in Wasser für Injektionszwecke bei 25°C gelöst (c(Gemcitabin) = 55,2 mg/ml entsprechend 62,8 mg Gemcitabinhydrochlorid pro ml Wasser sowie c(Gemcitabin) = 10,0mg/ml entsprechend 11,38 mg Gemcitabinhydrochlorid pro ml Wasser) und der pH-Wert mit q.s. 1 N Natronlauge / q.s. 1 N Salzsäure eingestellt.
Aus dem so gewonnenen Ansatz wurden mit Wasser für Injektionszwecke verdünnte Lösungen hergestellt und potentiometrisch deren pH-Wert bestimmt. Die hergestellten Lösungen wurden jeweils als 5ml-Aliquote in mit Durchstechstopfen dicht verschlossenen Vials abgefüllt. Diese Proben wurden nach Lagerung bei 2-8°C bzw. bei 25°C auf sichtbare Auskristallisation des Wirkstoffs geprüft ("+" Niederschlag; "-" klar und partikelfrei) und ihr pH-Wert bestimmt. Tabelle 1: Niederschlagbildung in 25°C und 2-8°C-gelagerter Gemcitabinlösungen (Anfangs-pH ca. 4,0)

Nc1ccn([C@@H]2O[C@H](CO)[C@@H](O)C2(F)F)c(=O)n1 [Gemcitabin, 2'-Deoxy-2',2'-difluorcytidin]
Auskristallisation [1]: spontane (pH 5,0; 25°C) Auskristallisation | Gehalt ([2]; 5°C, 0 mon): 100,0 rel.% | Gehalt ([2]; 5°C, 3 mon, 129600 min): 99,7 rel.% | Gehalt ([2]; 5°C, 6 mon, 259200 min): 99,4 rel.% | Gehalt ([2]; 5°C, 9 mon, 388800 min): 99,2 rel.% | Gehalt ([2]; 5°C, 12 mon, 518400 min): 99,0 rel.% | Gehalt ([2]; 15°C, 0 mon): 100,0 rel.% | Gehalt ([2]; 15°C, 3 mon, 129600 min): 99,6 rel.% | Gehalt ([2]; 15°C, 6 mon, 259200 min): 99,2 rel.% | Gehalt ([2]; 15°C, 9 mon, 388800 min): 98,8 rel.% | Gehalt ([2]; 15°C, 12 mon, 518400 min): 98,3 rel.% | Gehalt ([2]; 25°C, 0 mon): 100,0 rel.% | Gehalt ([2]; 25°C, 3 mon, 129600 min): 97,1 rel.% | Gehalt ([2]; 25°C, 6 mon, 259200 min): 94,1 rel.% | Sichtbare Auskristallisation ([3]; pH 2,0, nach 1 Tag (2-8°C)): + | Sichtbare Auskristallisation ([3]; pH 2,0, nach 2 Tagen (2-8°C)): + | Sichtbare Auskristallisation ([3]; pH 2,0, nach 3 Tagen (2-8°C)): + | Sichtbare Auskristallisation ([3]; pH 2,0, nach 7 Tagen (2-8°C)): + | Sichtbare Auskristallisation ([3]; pH 2,0, nach 14 Tagen (2-8°C)): + | Sichtbare Auskristallisation ([3]; pH 2,5, nach 1 Tag (2-8°C)): - | Sichtbare Auskristallisation ([3]; pH 2,5, nach 2 Tagen (2-8°C)): + | Sichtbare Auskristallisation ([3]; pH 2,5, nach 3 Tagen (2-8°C)): + | Sichtbare Auskristallisation ([3]; pH 2,5, nach 7 Tagen (2-8°C)): + | Sichtbare Auskristallisation ([3]; pH 2,5, nach 14 Tagen (2-8°C)): + | Sichtbare Auskristallisation ([3]; pH 3,0, nach 1 Tag (2-8°C)): - | Sichtbare Auskristallisation ([3]; pH 3,0, nach 2 Tagen (2-8°C)): + | Sichtbare Auskristallisation ([3]; pH 3,0, nach 3 Tagen (2-8°C)): + | Sichtbare Auskristallisation ([3]; pH 3,0, nach 7 Tagen (2-8°C)): + | Sichtbare Auskristallisation ([3]; pH 3,0, nach 14 Tagen (2-8°C)): + | Sichtbare Auskristallisation ([3]; pH 3,5, nach 1 Tag (2-8°C)): - | Sichtbare Auskristallisation ([3]; pH 3,5, nach 2 Tagen (2-8°C)): - | Sichtbare Auskristallisation ([3]; pH 3,5, nach 3 Tagen (2-8°C)): - | Sichtbare Auskristallisation ([3]; pH 3,5, nach 7 Tagen (2-8°C)): - | Sichtbare Auskristallisation ([3]; pH 3,5, nach 14 Tagen (2-8°C)): - | Dauer, über die die Lösungen stabil sind [4]: ≥ 3 Jahren | solubility [5]: ~10000 µg/mL
